For this experiment, the target named is T1, human FXR (Homo sapiens, UniProt Q96RI1).
T1 sequence (Q96RI1 262-486 limits assumed): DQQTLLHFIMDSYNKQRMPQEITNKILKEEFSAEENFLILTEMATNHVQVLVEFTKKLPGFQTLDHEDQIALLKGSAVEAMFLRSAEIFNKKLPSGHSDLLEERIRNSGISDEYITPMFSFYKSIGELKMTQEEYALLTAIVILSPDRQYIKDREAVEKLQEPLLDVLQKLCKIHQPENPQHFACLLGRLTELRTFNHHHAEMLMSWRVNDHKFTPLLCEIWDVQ
Briefly: transient human FXR/Gal4-luciferase reporter assay (HLE GAL-FXR). The conditions noted are these: HEK293 cells; for EC50: FXR EC50 (nM). For orientation: Reporter assays use an easily measured gene product as a stand-in for the process of interest.

Where [1] appears, read: HLE GAL-FXR EC50, Gal4-hFXR fusion reporter.
Where [2] appears, read: Gal4-hFXR fusion reporter, Table 1.

pEC50: −log10 of the molar value. Like-named read-outs stand apart in the source and are kept apart here.

The term pEC50 denotes the negative decadic logarithm of the EC50, by convention in mol/L. In turn, `O=C(O)c1cc(OC2CC2)c2cc(N3CC4C(/C=C/c5c(-c6ccccc6C(F)(F)F)noc5C5CC5)C4C3)ccc2n1` (stereo not drawn) [Example 184, (E)-4-Cyclopropoxy-6-(6-(2-(5-cyclopropyl-3-(2-(trifluoromethyl)phenyl)-isoxazol-4-yl)vinyl)-3-azabicyclo[3.1.0]hexan-3-yl)quinoline-2-carboxylic acid] showed a negative logarithm of the EC50 (pEC50) under setting [1] of 7.30.
The EC50 is the concentration that produces a half-maximal response. A higher EC50 goes with lower potency in that assay. `O=C(O)c1cc(O[C@H]2C[C@@H](F)C2)c2cc(N3CC(/C=C/c4c(-c5cccnc5C(F)(F)F)noc4C4CC4)C3)ccc2n1` [Example 195]: under setting [2], the EC50 amounted to 286 nM.
Same read-out and setting: for `Clc1cccc(Cl)c1-c1noc(C2CC2)c1/C=C/C1C2CN(c3ccc(-c4nn[nH]n4)cc3)CC12` (stereo not drawn) [Example 61] the value was 41 nM; for `Cn1c(C(=O)O)cc2ccc(N3CCC(/C=C/c4c(-c5c(Cl)cccc5Cl)noc4C4CC4)CC3)cc21` [Example 35], 25 nM; for `O=C(O)c1cc(OC2COC2)c2cc(N3CC4C(/C=C/c5c(-c6c(Cl)cncc6Cl)noc5C5CC5)C4C3)ccc2n1` (stereo not drawn) [Example 126], 18 nM.
Same read-out and setting: for `Cn1c(N2CCC(/C=C/c3c(-c4c(Cl)cccc4Cl)noc3C3CC3)CC2)nc2cc(C(=O)O)ccc21` [Example 28] the value was 500 nM; for `O=C(O)c1ccc(N2CCC(/C=C/c3c(C4CC4)nnn3-c3c(Cl)cccc3Cl)CC2)nc1` [Example 16], 109 nM.
As to `Cn1cc(C(=O)O)c2ccc(N3CCC(/C=C/c4c(-c5c(Cl)cccc5Cl)noc4C4CC4)CC3)nc21` [Example 20], under setting [2], the EC50 was found to be 21 nM.
As to `O=C(O)c1cc(F)c2nc(N3CCC(/C=C/c4c(-c5ccccc5C(F)(F)F)noc4C4CC4)CC3)sc2c1` [Example 49], the EC50 under setting [2] amounted to 23 nM.
On the same count and under the same terms, for `Cn1cc(C(=O)O)c(=O)c2ccc(N3CC4C(/C=C/c5c(-c6ccccc6C(F)(F)F)noc5C5CC5)C4C3)cc21` (stereo not drawn) [Example 190] the value was 376 nM; for `O=C(O)c1cc(F)c2nc(N3CCC(/C=C/c4c(-c5ccccc5OC(F)(F)F)noc4C4CC4)CC3)sc2c1` [Example 43], 42 nM.
Consider `Cn1cc(C(=O)O)c2ncc(N3CC4C(/C=C/c5c(-c6ccccc6C(F)(F)F)noc5C5CC5)C4C3)cc21` (stereo not drawn) [Example 211], for which, under setting [2], the EC50 stood at 154 nM. Compared with the last molecule, the EC50 is about 3.7-fold higher.
Still for that read-out and setting: then `O=C(O)c1nc2ccc(N3CC4C(/C=C/c5c(-c6c(Cl)cncc6Cl)noc5C5CC5)C4C3)cc2s1` (stereo not drawn) [Example 107], with 472 nM; and `O=C(O)c1cnn2cc(N3CCC(/C=C/c4c(-c5ccccc5OC(F)(F)F)noc4C4CC4)CC3)ccc12` [Example 118], with 276 nM.
Same read-out and setting: for `O=C(O)c1cc(O[C@@H]2CCOC2)c2cc(N3CC(/C=C/c4c(-c5cccnc5C(F)(F)F)noc4C4CC4)C3)ccc2n1` [Example 188] the value was 1690 nM; for `COc1ccc(COc2cc(C(=O)O)nc3ccc(N4CC5C(/C=C/c6c(-c7c(Cl)cncc7Cl)noc6C6CC6)C5C4)cc23)cc1` (stereo not drawn) [Example 129], 240 nM; for `COCc1cc(C(=O)O)nc2ccc(N3CC(/C=C/c4c(-c5ccccc5C(F)(F)F)noc4C4CC4)C3)cc12` [Example 186], 228 nM.
The molecule `N#Cc1ccc(N2CCC(/C=C/c3c(-c4c(Cl)cccc4Cl)noc3C3CC3)CC2)cc1` [Example 50, (E)-4-(4-(2-(5-cyclopropyl-3-(2,6-dichlorophenyl)isoxazol-4-yl)vinyl)piperidin-1-yl)benzonitrile] showed an EC50 under setting [2] of 671 nM.
`O=C(O)c1cc2ccc(N3CCC(/C=C/c4c(-c5cccnc5C(F)(F)F)noc4C4CC4)CC3)cc2cn1` [Example 103] came in with an EC50 under setting [2] of 189 nM.
`O=C(O)c1cc(F)c2nc(N3CCC(/C=C/c4c(-c5c(Cl)cccc5Cl)cnn4C4CC4)CC3)sc2c1` [Example 12, (E)-2-(4-(2-(1-Cyclopropyl-4-(2,6-dichlorophenyl)-1H-pyrazol-5-yl)vinyl)piperidin-1-yl)-4-fluorobenzo[d]thiazole-6-carboxylic acid] showed a negative logarithm of the EC50 (pEC50) under setting [1] of 6.65.
In the case of `O=C(O)c1ccc(N2CCC(/C=C/c3c(-c4c(Cl)cccc4Cl)noc3C3CC3)CC2)cn1` [Example 30], the EC50 under setting [2] is 78 nM. This lies in the double-digit nanomolar range.
In turn, `O=C(O)c1cc(O[C@@H]2CCOC2)c2cc(N3CC4C(/C=C/c5c(-c6cccnc6C(F)(F)F)noc5C5CC5)C4C3)ccc2n1` (stereo partly drawn) [Example 157] displayed an EC50 under setting [2] of 165 nM.
Still for that read-out and setting: for `O=C(O)c1ccc2cc(N3CC4C(/C=C/c5c(-c6c(Cl)cncc6Cl)noc5C5CC5)C4C3)ccc2n1` (stereo not drawn) [Example 82] the value was 267 nM.
Same read-out and setting: for `O=C(O)c1ccc2nc(N3CCC(/C=C/c4c(-c5c(Cl)cccc5Cl)noc4C4CC4)CC3)sc2c1` [Example 22] the value was 12 nM.
Under setting [1], `CC1(/C=C/c2c(-c3c(Cl)cccc3Cl)noc2C2CC2)CCN(c2ccc3nc(C(=O)O)ccc3c2)CC1` [Example 7, (E)-6-(4-(2-(5-cyclopropyl-3-(2,6-dichlorophenyl)isoxazol-4-yl)vinyl)-4-methylpiperidin-1-yl)quinoline-2-carboxylic acid] had a negative logarithm of the EC50 (pEC50) of 6.64.
With `COc1cc(C(=O)O)nc2ccc(N3CCC(/C=C/c4c(-c5ncccc5C(F)(F)F)noc4C4CC4)CC3)cc12` [Example 125], under setting [2], the EC50 worked out at 14 nM.
On to `COc1cc(C(=O)O)cc(-c2csc(N3CC4C(/C=C/c5c(-c6c(Cl)cncc6Cl)noc5C5CC5)C4C3)n2)c1` (stereo not drawn) [Example 208, (E)-3-(2-(6-(2-(5-Cyclopropyl-3-(3,5-dichloropyridin-4-yl)isoxazol-4-yl)vinyl)-3-azabicyclo[3.1.0]hexan-3-yl)thiazol-4-yl)-5-methoxybenzoic acid], for which, under setting [1], the negative logarithm of the EC50 (pEC50) is 6.61.
`O=C(O)c1ccc(N2CCC(/C=C\c3c(-c4c(Cl)cccc4Cl)noc3C3CC3)CC2)nc1` [Example 3, (Z)-6-(4-(2-(5-cyclopropyl-3-(2,6-dichlorophenyl)isoxazol-4-yl)vinyl)piperidin-1-yl)nicotinic acid] gave a negative-log EC50 (pEC50) under setting [1] of 6.97.
In turn, `O=C(O)c1cnc2ccc(N3CC4C(/C=C/c5c(-c6ccccc6C(F)(F)F)noc5C5CC5)C4C3)cc2n1` (stereo not drawn) [Example 138] displayed an EC50 under setting [2] of 2470 nM.
The same measure, in the same setting: for `COc1cc(C(=O)O)nc2sc(N3CC4C(/C=C/c5c(-c6ccccc6C(F)(F)F)noc5C5CC5)C4C3)nc12` (stereo not drawn) [Example 139] the value was 163 nM; for `O=C(O)c1cc(OC2COC2)c2cc(N3CC4C(/C=C/c5c(-c6ccccc6C(F)(F)F)noc5C5CC5)C4C3)ccc2n1` (stereo not drawn) [Example 134], 15 nM.
Regarding `COc1cc(C(=O)O)nc2c(F)cc(N3CC4C(/C=C/c5c(-c6c(Cl)cncc6Cl)noc5C5CC5)C4C3)cc12` (stereo not drawn) [Example 198], the EC50 under setting [2] was 71 nM.
On the same count and under the same terms, for `COc1cc(C(=O)O)nc2ccc(N3CCC(/C=C/c4c(-c5ccccc5C(F)(F)F)noc4C4CC4)CC3)cc12` [Example 100] the value was 4 nM; for `O=C(O)c1cc(O[C@H]2C[C@H](F)C2)c2cc(N3CC(/C=C/c4c(-c5ccccc5C(F)(F)F)noc4C4CC4)C3)ccc2n1` [Example 194], 159 nM.
Consider `O=C(O)c1cc(O[C@H]2C[C@H](F)C2)c2cc(N3CC4C(/C=C/c5c(-c6ccccc6C(F)(F)F)noc5C5CC5)C4C3)ccc2n1` (stereo partly drawn) [Example 199], for which the EC50 under setting [2] worked out at 63 nM.
Take `Clc1cccc(Cl)c1-c1noc(C2CC2)c1/C=C/C1CCN(c2cccc(-c3nn[nH]n3)c2)CC1` [Example 63]: the EC50 under setting [2] came out at 216 nM.
Take `O=C(O)c1cc(F)c2nc(N3CC4C(/C=C/c5c(-c6c(Cl)cncc6Cl)noc5C5CC5)C4C3)sc2c1` (stereo not drawn) [Example 77]: the EC50 under setting [2] is 786 nM.
Turning to `O=C(O)c1cc(O[C@H]2CCOC2)c2cc(N3CC(/C=C/c4c(-c5ccccc5C(F)(F)F)noc4C4CC4)C3)ccc2n1` [Example 193], the concentration for a half-maximal effect (EC50) under setting [2] turned out to be 343 nM.
Under setting [1], `COc1cc(C(=O)O)cc(-c2cnc(N3CC4C(/C=C/c5c(-c6c(Cl)cncc6Cl)noc5C5CC5)C4C3)s2)c1` (stereo not drawn) [Example 216, (E)-3-(2-(6-(2-(5-cyclopropyl-3-(3,5-dichloropyridin-4-yl)isoxazol-4-yl)vinyl)-3-azabicyclo[3.1.0]hexan-3-yl)thiazol-5-yl)-5-methoxybenzoic acid] showed a pEC50 of 6.69.
The molecule `O=C(O)c1ccc2cc(N3CCC(/C=C/c4c(-c5c(Cl)cccc5Cl)noc4C4CC4)CC3)ccc2n1` [Example 26] had an EC50 under setting [2] of 6 nM.
Under setting [2], `O=C(O)c1ccc2nc(N3CC4C(/C=C/c5c(-c6c(Cl)cccc6Cl)noc5C5CC5)C4C3)sc2c1` (stereo not drawn) [Example 46] came in with an EC50 of 117 nM.
As for `Cc1cc(C(=O)O)nc2ccc(N3CC4C(/C=C/c5c(-c6c(Cl)cncc6Cl)noc5C5CC5)C4C3)cc12` (stereo not drawn) [Example 111], where the note is “read-out: FXR EC50, Gal4-hFXR fusion reporter, Table 1”, the pEC50 was 7.42.
In turn, `Cn1cc(C(=O)O)c2ccc(N3CCC(/C=C/c4c(-c5c(Cl)cccc5Cl)noc4C4CC4)CC3)cc21` [Example 2, (E)-6-(4-(2-(5-Cyclopropyl-3-(2,6-dichlorophenyl)isoxazol-4-yl)vinyl)piperidin-1-yl)-1-methyl-1H-indole-3-carboxylic acid] showed a pEC50 under setting [1] of 8.30.
`COc1cc(C(=O)O)nc2ccc(N3CCC(/C=C/c4c(-c5c(Cl)cncc5Cl)noc4C4CC4)CC3)cc12` [Example 88] returned an EC50 under setting [2] of 5 nM.
Still for that read-out and setting: then `O=C(O)c1cc(OC2COC2)c2cc(N3CC4C(/C=C/c5c(-c6cccnc6C(F)(F)F)noc5C5CC5)C4C3)ccc2n1` (stereo not drawn) [Example 143], with 88 nM; and `O=C(O)c1ccn2nc(N3CCC(/C=C/c4c(-c5c(Cl)cccc5Cl)noc4C4CC4)CC3)ncc12` [Example 29], with 60 nM.
Molecule `O=C(O)c1ccc2cc(N3CC4C(/C=C/c5c(-c6c(Cl)cccc6Cl)noc5C5CC5)C4C3)ccc2n1` (stereo not drawn) [Example 9, (E)-6-(6-(2-(5-cyclopropyl-3-(2,6-dichlorophenyl)isoxazol-4-yl)vinyl)-3-azabicyclo[3.1.0]hexan-3-yl)quinoline-2-carboxylic acid] showed a negative-log EC50 (pEC50) under setting [1] of 7.41.
With `COc1cc(C(=O)O)cc(-c2ccc(N3CC(/C=C/c4c(-c5ccccc5C(F)(F)F)noc4C4CC4)C3)nc2)c1` [Example 222], a half-maximal response under setting [2] (EC50) required 34 nM.

For the origin of these results see patent US11168079B2, “Alkene compounds as farnesoid x receptor modulators” (BRISTOL-MYERS SQUIBB COMPANY, priority 2017, dated 2021).
